This passage reports IC50 and EC50 results from US11976072B2, “Diacylglycerol kinase modulating compounds” (priority 2021, dated 2024).

One assay concerns the target human DGKα (Homo sapiens, UniProt P23743). As to the kind of experiment: DGKα Biochemical Activity Assay (ADP-Glo).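 Also: luminescent detection of ADP produced as DGKα phosphorylates DAG to phosphatidic acid, IC50 from four-parameter nonlinear curve fit.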 The note with it: recombinant DGKα 1 nM, 100 μM ATP, 18:1 DAG/POPS/octylglucoside micelles, 1 hour at 25° C.; geometric mean; read-out: HTBS DGKa 1X ATP KM IC50.
For assay [1], the system named is Jurkat NFκB-luciferase cells. As to the kind of experiment: Jurkat NFκB-Luciferase Assay. As to conditions: Homo sapiens; Jurkat NFκB-luciferase cells activated with anti-CD3 antibody (OKT3), 2.5 hrs at 37° C.; geometric mean; read-out: DGK NFKb Luciferase EC50. The assay is classed as cell-based. An outline of the steps: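 Luminescence from One-Glo Ex, read 7 min post-addition, reports NFκB activation in Jurkat luciferase reporter cells. Cells, diluted to 1 million cells/ml in 10% FBS RPMI, were dispensed onto plates holding compound and washed, pre-bound antibody.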

human DGKα, sequence (P23743 whole entry): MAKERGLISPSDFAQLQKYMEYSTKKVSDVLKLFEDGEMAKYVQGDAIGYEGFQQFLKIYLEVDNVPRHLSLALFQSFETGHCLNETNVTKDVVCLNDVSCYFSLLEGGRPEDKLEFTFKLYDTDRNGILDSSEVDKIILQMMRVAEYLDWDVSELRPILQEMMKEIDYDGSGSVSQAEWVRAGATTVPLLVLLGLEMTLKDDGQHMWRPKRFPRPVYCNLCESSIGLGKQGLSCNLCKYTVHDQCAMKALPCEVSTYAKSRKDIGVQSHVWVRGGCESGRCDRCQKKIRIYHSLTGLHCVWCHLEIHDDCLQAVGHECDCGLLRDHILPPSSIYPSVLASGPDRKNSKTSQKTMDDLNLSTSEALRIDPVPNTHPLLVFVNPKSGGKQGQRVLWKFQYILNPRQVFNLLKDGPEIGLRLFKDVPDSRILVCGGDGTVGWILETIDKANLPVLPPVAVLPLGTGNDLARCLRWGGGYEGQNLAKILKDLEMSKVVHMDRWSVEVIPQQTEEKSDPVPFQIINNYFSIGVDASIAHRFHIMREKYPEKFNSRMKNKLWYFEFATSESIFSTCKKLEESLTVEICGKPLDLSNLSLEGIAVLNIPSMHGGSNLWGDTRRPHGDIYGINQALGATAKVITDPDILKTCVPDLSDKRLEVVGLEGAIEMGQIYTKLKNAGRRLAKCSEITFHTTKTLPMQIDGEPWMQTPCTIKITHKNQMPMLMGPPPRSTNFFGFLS

Regarding `Cc1nnc2nc(N3CCCc4c(C#CC(C)(C)C(=O)O)cccc43)c3c(F)cccc3n12` [Example 73, 4-(1-(6-fluoro-1-methyl-[1,2,4]triazolo[4,3-a]quinazolin-5-yl)-1,2,3,4-tetrahydroquinolin-5-yl)-2,2-dimethylbut-3-ynoic Acid], the IC50 on human DGKα was determined as 61.3 nM. For the same molecule, the EC50 in assay [1] is 10.8 nM.
The like results for `COc1ccc(C#Cc2cc(N(CC(F)F)c3nc4nnc(C)n4c4cccc(F)c34)ccn2)cn1` [Example 74, N-(2,2-difluoroethyl)-6-fluoro-N-(2-((6-methoxypyridin-3-yl)ethynyl)pyridin-4-yl)-1-methyl-[1,2,4]triazolo[4,3-a]quinazolin-5-amine] were, in that order, 6.1 nM and 1.95 nM.
Taken in the same sequence, the figures for `COc1ccc(C#Cc2nccc3c2CCCN3c2nc3nnc(C)n3c3cccc(F)c23)cn1` [Example 75, 6-fluoro-5-(5-((6-methoxypyridin-3-yl)ethynyl)-3,4-dihydro-1,6-naphthyridin-1(2H)-yl)-1-methyl-[1,2,4]triazolo[4,3-a]quinazoline] were 28.9 nM and 3.41 nM.
The like results for `Cc1nccn1C(C)(C)C#Cc1cccc2c1CCCN2c1nc2nnc(C)n2c2cccc(F)c12` [Example 76, 6-fluoro-1-methyl-5-(5-(3-methyl-3-(2-methyl-1H-imidazol-1-yl)but-1-yn-1-yl)-3,4-dihydroquinolin-1(2H)-yl)-[1,2,4]triazolo[4,3-a]quinazoline] were, in that order, 13.4 nM and 8.01 nM.
In the case of `Cc1nc(C(C)(C)C#Cc2cccc3c2CCCN3c2nc3nnc(C)n3c3cccc(F)c23)oc1C` [Example 77, 2-(4-(1-(6-fluoro-1-methyl-[1,2,4]triazolo[4,3-a]quinazolin-5-yl)-1,2,3,4-tetrahydroquinolin-5-yl)-2-methylbut-3-yn-2-yl)-4,5-dimethyloxazole], at human DGKα, the 50% inhibitory concentration (IC50) turned out to be 15.5 nM. Besides, the EC50 in assay [1] is 1.94 nM.
`Cc1nnc2nc(N3CCCc4c(C#CC(C)(C)n5ccnc5)cccc43)c3c(F)cccc3n12` [Example 78, 5-(5-(3-(1H-imidazol-1-yl)-3-methylbut-1-yn-1-yl)-3,4-dihydroquinolin-1(2H)-yl)-6-fluoro-1-methyl-[1,2,4]triazolo[4,3-a]quinazoline]: at human DGKα, the IC50 was 41.2 nM. The EC50 in assay [1] came out at 7.73 nM.
For the molecule `Cc1nnc2nc(N3CCCc4c(C#CC(C)(C)c5ncco5)cccc43)c3c(F)cccc3n12` [Example 79, 2-(4-(1-(6-fluoro-1-methyl-[1,2,4]triazolo[4,3-a]quinazolin-5-yl)-1,2,3,4-tetrahydroquinolin-5-yl)-2-methylbut-3-yn-2-yl)oxazole], the IC50 on human DGKα stood at 22.6 nM. Besides, in assay [1], the EC50 came to 2.54 nM.
As for `Cc1nnc2nc(N(CC(F)F)c3ccnc(C#CC(C)(C)C(F)(F)F)c3F)c3c(F)c(F)ccc3n12` [Example 80, N-(2,2-difluoroethyl)-6,7-difluoro-N-(3-fluoro-2-(4,4,4-trifluoro-3,3-dimethylbut-1-yn-1-yl)pyridin-4-yl)-1-methyl-[1,2,4]triazolo[4,3-a]quinazolin-5-amine], the IC50 on human DGKα was 15.1 nM. The EC50 in assay [1] amounted to 2.15 nM.
Consider `Cc1nnc2nc(N(CC(F)F)c3ccnc(C#CC4CC4)c3)c3c(F)c(F)ccc3n12` [Example 81, N-(2-(cyclopropylethynyl)pyridin-4-yl)-N-(2,2-difluoroethyl)-6,7-difluoro-1-methyl-[1,2,4]triazolo[4,3-a]quinazolin-5-amine], for which, at human DGKα, the IC50 came to 10.4 nM. The EC50 in assay [1] stood at 30.7 nM.
Taken in the same sequence, the figures for `Cc1nnc2nc(N(CC(F)F)c3ccnc(C#CC4CC4)c3)c3c(F)cccc3n12` [Example 82, N-(2-(cyclopropylethynyl)pyridin-4-yl)-N-(2,2-difluoroethyl)-6-fluoro-1-methyl-[1,2,4]triazolo[4,3-a]quinazolin-5-amine] were 11.4 nM and 10.5 nM.
Taken in the same sequence, the figures for `Cc1nnc2nc(N3CCCc4c(C#CC5(C)CC5)cncc43)c3c(F)c(F)ccc3n12` [Example 83, 6,7-difluoro-1-methyl-5-(5-((1-methylcyclopropyl)ethynyl)-3,4-dihydro-1,7-naphthyridin-1(2H)-yl)-[1,2,4]triazolo[4,3-a]quinazoline] were 8.49 nM and 1.21 nM.
Taken in the same sequence, the figures for `Cc1nnc2nc(N(CC(F)F)c3ccnc(C#CC(C)(C)C(F)(F)F)c3)c3c(F)c(F)ccc3n12` [Example 84, N-(2,2-difluoroethyl)-6,7-difluoro-1-methyl-N-(2-(4,4,4-trifluoro-3,3-dimethylbut-1-yn-1-yl)pyridin-4-yl)-[1,2,4]triazolo[4,3-a]quinazolin-5-amine] were 5.06 nM and 2.44 nM.
Regarding `Cc1nnc2nc(N3CCCc4c3ccnc4C#CC3(C)CC3)c3c(F)c(F)ccc3n12` [Example 85, 6,7-difluoro-1-methyl-5-(5-((1-methylcyclopropyl)ethynyl)-3,4-dihydro-1,6-naphthyridin-1(2H)-yl)-[1,2,4]triazolo[4,3-a]quinazoline], the IC50 at human DGKα was found to be 7.21 nM. The EC50 in assay [1] came out at 2.24 nM.
`Cc1nnc2nc(N(CC(F)F)c3ccnc(C#CC4CC4)c3)c3cc(F)ccc3n12` [Example 87, N-(2-(cyclopropylethynyl)pyridin-4-yl)-N-(2,2-difluoroethyl)-7-fluoro-1-methyl-[1,2,4]triazolo[4,3-a]quinazolin-5-amine]: the IC50 at human DGKα is 3.5 nM. Besides, the EC50 in assay [1] was found to be 7.57 nM.
With `Cc1nnc2nc(N3CCCc4c(C#CC5(C(F)(F)F)CC5)cncc43)c3c(F)c(F)ccc3n12` [Example 88, 6,7-difluoro-1-methyl-5-(5-((1-(trifluoromethyl)cyclopropyl)ethynyl)-3,4-dihydro-1,7-naphthyridin-1(2H)-yl)-[1,2,4]triazolo[4,3-a]quinazoline], the IC50 at human DGKα was found to be 10.6 nM. For the same molecule, in assay [1], the EC50 is 1.14 nM.
The like results for `Cc1nnc2nc(N(CC(F)F)c3ccnc(C#CC4(C(F)(F)F)CC4)c3F)c3cc(F)ccc3n12` [Example 89] were, in that order, 5.41 nM and 4.61 nM.
Taken in the same sequence, the figures for `Cc1nnc2nc(N3CCCc4c(C#CC(C)(C)C(F)(F)F)cncc43)c3c(F)c(F)ccc3n12` [Example 90, 6,7-difluoro-1-methyl-5-(5-(4,4,4-trifluoro-3,3-dimethylbut-1-yn-1-yl)-3,4-dihydro-1,7-naphthyridin-1(2H)-yl)-[1,2,4]triazolo[4,3-a]quinazoline] were 29.3 nM and 1.88 nM.
The like results for `Cc1nnc2nc(N(CC(F)F)c3ccnc(C#CC4(C)CC4)c3)c3c(F)c(F)ccc3n12` [Example 91, N-(2,2-difluoroethyl)-6,7-difluoro-1-methyl-N-(2-((1-methylcyclopropyl)ethynyl)pyridin-4-yl)-[1,2,4]triazolo[4,3-a]quinazolin-5-amine] were, in that order, 3.43 nM and 3.83 nM.
With `Cc1nnc2nc(N(CC(F)F)c3ccnc(C#CC4(C(F)(F)F)CC4)c3)c3c(F)c(F)ccc3n12` [Example 92, N-(2,2-difluoroethyl)-6,7-difluoro-1-methyl-N-(2-((1-(trifluoromethyl)cyclopropyl)ethynyl)pyridin-4-yl)-[1,2,4]triazolo[4,3-a]quinazolin-5-amine], the IC50 on human DGKα came to 13.8 nM. Moreover, the EC50 in assay [1] was determined as 5.3 nM.
On to `CC(C)(C#Cc1cc(N(CC(F)F)c2nc3nncn3c3ccc(F)c(F)c23)ccn1)C(F)(F)F` [Example 93, N-(2,2-difluoroethyl)-6,7-difluoro-N-(2-(4,4,4-trifluoro-3,3-dimethylbut-1-yn-1-yl)pyridin-4-yl)-[1,2,4]triazolo[4,3-a]quinazolin-5-amine], for which the IC50 on human DGKα worked out at 8.14 nM. For the same molecule, the EC50 in assay [1] was 2.63 nM.
The like results for `CC1(C#Cc2cc(N(CC(F)F)c3nc4nncn4c4ccc(F)c(F)c34)ccn2)CC1` [Example 94, N-(2,2-difluoroethyl)-6,7-difluoro-N-(2-((1-methylcyclopropyl)ethynyl)pyridin-4-yl)-[1,2,4]triazolo[4,3-a]quinazolin-5-amine] were, in that order, 4.3 nM and 2.33 nM.
On to `Fc1ccc2c(c(N(CC(F)F)c3ccnc(C#CC4(C(F)(F)F)CC4)c3)nc3nncn32)c1F` [Example 95, N-(2,2-difluoroethyl)-6,7-difluoro-N-(2-((1-(trifluoromethyl)cyclopropyl)ethynyl)pyridin-4-yl)-[1,2,4]triazolo[4,3-a]quinazolin-5-amine], for which, on human DGKα, the IC50 turned out to be 7.69 nM. Moreover, the EC50 in assay [1] is 2.77 nM.
Taken in the same sequence, the figures for `Cc1nnc2nc(N(CC(F)F)c3ccnc(C#CC4(C)CC4)c3)c3cc(F)ccc3n12` [Example 96, N-(2,2-difluoroethyl)-7-fluoro-1-methyl-N-(2-((1-methylcyclopropyl)ethynyl)pyridin-4-yl)-[1,2,4]triazolo[4,3-a]quinazolin-5-amine] were 6.22 nM and 5.1 nM.
The like results for `CC(C)(C#Cc1nccc(N(CC(F)F)c2nc3nncn3c3ccc(F)cc23)c1F)C(F)(F)F` [Example 97, N-(2,2-difluoroethyl)-7-fluoro-N-(3-fluoro-2-(4,4,4-trifluoro-3,3-dimethylbut-1-yn-1-yl)pyridin-4-yl)-[1,2,4]triazolo[4,3-a]quinazolin-5-amine] were, in that order, 18 nM and 3.9 nM.
The like results for `COCCN(c1cc(F)cc(C#CC2(C(F)(F)F)CC2)c1)c1nc2nncn2c2cccc(F)c12` [Example 98, 6-fluoro-N-(3-fluoro-5-((1-(trifluoromethyl)cyclopropyl)ethynyl)phenyl)-N-(2-methoxyethyl)-[1,2,4]triazolo[4,3-a]quinazolin-5-amine] were, in that order, 84.7 nM and 18.8 nM.
With `CC1(C#Cc2cncc3c2CCCN3c2nc3nncn3c3ccc(F)c(F)c23)CC1` [Example 99, 6,7-difluoro-5-(5-((1-methylcyclopropyl)ethynyl)-3,4-dihydro-1,7-naphthyridin-1(2H)-yl)-[1,2,4]triazolo[4,3-a]quinazoline], the IC50 on human DGKα was 7.4 nM. For the same molecule, the EC50 in assay [1] is 0.483 nM.
